Reference: a melting point compilation (Tetko et al.)

SMILES	melting point [°C]
C=COC(=O)CCCCCCCCCCCCCCCCC	36
CCC1C2CC3C4N(C)c5ccccc5C45CC(C2C5O)N3C1O (centres undefined)	159
C=C(C)C(=O)OCCCCCCCCCCCC	-7
CCCCCCC(=O)OC	-56
CN(C)c1ccc(C(C=C2C=Cc3ccccc3N2N=O)c2ccccc2)cc1 (centres undefined)	196
O=C1OCCOC(=O)C2CCCCC2C(=O)OCCOC(=O)C2CCCCC12 (centres undefined)	210
C=CC(=O)OCC(C)C	-61
O=C(NCCCCc1ccccc1)c1cc([N+](=O)[O-])cc([N+](=O)[O-])c1	165 to 167
COc1cc(OC)c([N+](=O)[O-])c(OC)c1	152
C=C=O	-151
O=C(Cl)c1cncc(Br)c1	84 to 86
CC1=Nc2c(ccc3ccccc23)C1(C)C	71
Oc1c(Cl)cccc1-c1ccccc1	6
Nc1c(F)c(F)c(C(=O)O)c(F)c1F	183
CCCCCCCC(=O)OCCC	-46.2
COc1ccc(Br)cc1F	16
O=C1Nc2ccccc2C12OCCO2	125 to 128
COc1cc2c(cc1OC)C(c1ccc(F)cc1)N(C(C)=O)CC2 (centres undefined)	162 to 164
CCCCCCCCCCCCCCCCCCCc1ccccc1	40
Nc1ncnc2[nH]nnc12	> 300
CCOc1ccc(-c2nnc3n2NC(C=Cc2ccccc2)S3)cc1 (centres undefined)	226 to 228
S=C=NC12CC3CC(CC(C3)C1)C2	166 to 168
CCN(CC)C(=O)CSc1ccc(Cl)nn1	98
OC1OCC(Cc2ccc3c(c2)OCO3)C1Cc1ccc2c(c1)OCO2 (centres undefined)	132

SMILES	melting point [°C]
CNC(=O)COc1ccccc1OCC(O)CNC(C)(C)C (centres undefined)	96.5
Clc1ccccc1-c1nnc(-c2ccccc2Cl)nn1	183
Cc1ccc(O)c(C(O)c2ccc(Br)cc2)c1 (centres undefined)	107
COc1ccc2[nH]cnc2c1	122
O=C(Oc1c(F)c(F)c(F)c(F)c1F)c1ccc(-c2cnco2)cc1	141 to 143
Ic1ccc(N(c2ccc(I)cc2)c2ccc(I)cc2)cc1	167
N[C@@H](CCCCNC(=O)OCc1ccccc1)C(=O)O	259
O=C(Cc1ccccc1)OCCc1ccccc1	26.5
COC(=O)c1scc(S(=O)(=O)C(C)C)c1N	139 to 143
NNC(=O)c1cccc(F)c1	138 to 139
O=C(C=Cc1ccc(-c2ccccc2[N+](=O)[O-])o1)c1ccco1	168 to 169
CCCC(=O)Nc1ccc(O)cc1	140
O=[N+]([O-])C=Cc1c(F)cccc1Cl	63
N#Cc1c[nH]nc1N	175
Nc1ccc(C(=O)O)c(Cl)c1	210 to 215
CC(=O)Nc1ccc(CC#N)cc1	82 to 83
CN(C)CCN1C(=O)c2ccccc2Nc2cc(Cl)ccc21	166
Nc1cc(N)c(/C=C/c2ccccc2)c([N+](=O)[O-])c1C=Cc1ccccc1	175
CCNC(=O)Nc1ncc([N+](=O)[O-])s1	228
FC1(F)C(F)(F)C(F)(F)C1(F)F	-40.1
Cc1c(N/N=C2/C(=O)N(c3ccccc3)N=C2C(F)(F)F)c(=O)n(-c2ccccc2)n1C	185
CSC(S)=Nc1ccc(C)cc1	175 to 176
CC(=O)c1ccc(S(=O)(=O)NC(=O)NC2CCCCC2)cc1	188
O=C1CC(c2ccccc2)Oc2ccc(O)cc21 (centres undefined)	220 to 222

SMILES	melting point [°C]
Fc1ccc2[nH]ccc2c1	45
CCOC(=O)C1(c2ccccc2)CCN(CCc2ccc(N)cc2)CC1	83
CC(C)=CCCC(C)=CC=CC(C)=CC=CC(C)=CC=CC=C(C)C=CC=C(C)C=CC=C(C)CCC=C(C)C	175
c1ccc(Cc2cccc3ccccc23)cc1	59.5
CCOP(=S)(NC(C)C)Oc1ccccc1C(=O)OC(C)C (centres undefined)	-12
O=[N+]([O-])c1cc([N+](=O)[O-])c(/C=C/c2ccc3c(c2)OCO3)cc1/C=C\c1ccc2c(c1)OCO2	215
COc1c(OC)c(=O)c1=O	55 to 57
CCCCC#CCCCC	-73
CCC(Oc1c(I)cc(I)cc1I)C(=O)O (centres undefined)	124
CCC(C)(C)c1ccc(O)c(C(C)(C)CC)c1	25
COc1cc(N=C=O)cc(OC)c1	34 to 35.5
Brc1ccncc1	0.5
COc1ccccc1P(CCP(c1ccccc1)c1ccccc1OC)c1ccccc1 (centres undefined)	102 to 104
N#Cc1c2ncccc2c(=O)n2c1sc1ccccc12	275
O=Cc1c[nH]c2ccc([N+](=O)[O-])cc12	300
COc1ccc(N=C(CNc2ccc(OC)cc2)Nc2ccc(OC)cc2)cc1	158 to 159
CNC(=O)ON=C1C(Cl)C2CC(C#N)C1C2 (centres undefined)	144
O=C(O)c1ccc(C(=O)O)c(C(=O)O)c1	231
Cc1ccc(O)c(F)c1F	37
CC(C)NNC(=O)COc1ccc(Cl)cc1	93.5
COc1ccc(OCC(N)=O)cc1	114 to 116
CCN(CC)CCCN(c1ccccc1)C1Cc2ccccc2C1	120
CSc1nc(N)nc(C2CC2)n1	157 to 159
CC(=O)c1cc(F)cc(F)c1O	109 to 110

SMILES	melting point [°C]
CCOC(C)OCC	-100
O=C(O)C=Cc1cccc(C(F)(F)F)c1	136
COc1ccc2c(c1O)-c1cccc3c1C(C2)N(C)CC3 (centres undefined)	124
CCCCCCCC(C)CC (centres undefined)	-92.9
Sc1cc(Cl)c(Cl)cc1Cl	117 to 118
Cc1cc(C=O)c(O)c(C=O)c1	127 to 131
O=C1Cc2cc3c(cc21)CC3=O	237
CCCCC(CC)CO (centres undefined)	-70
CC(=O)CS(=O)(=O)c1ccc(C)cc1	52 to 54
NC(=O)NN=C(O)/C=C/c1ccccc1	197 to 198
N#Cc1c(N)sc2c1CCCC2	142
Cc1ccc2c(c1C)CCC1C2CCC2CC(O)CCC21C (centres undefined)	188
CN1CCN2c3ncccc3Cc3ccccc3C2C1 (centres undefined)	115
Cc1cc(=O)[nH]c(=S)[nH]1	317 to 318
O=C1NN=C(C(F)(F)F)C1=NNc1ccccc1C(=O)O	274
CC(COc1ccccc1)NC(C)C(O)c1ccc(O)cc1 (centres undefined)	102
c1ccc(N2CSc3nnc(-c4cccnc4)n3C2)nc1	278 to 280
O=C1CNC(=O)CN1	300
CCOC(=O)c1cnn(-c2ccc(Cl)cc2)c1C(F)(F)F	50 to 52
CC(Cc1ccccc1)C(=O)O (centres undefined)	37 to 37.5
O=C(O)CCC(=O)c1ccc(Cl)cc1	129 to 132
OC(Cn1ccnc1)c1ccc(Cl)cc1Cl (centres undefined)	134 to 138
